Where two headings read alike, the source gives them in different places.
Columns and labels:
[1] = Tissue distribution study in rats; format: in vivo, Sprague-Dawley rats; conditions: for concentration in adrenal gland / concentration in brain / concentration in heart / concentration in kidney / concentration in liver / concentration in lung / concentration in lymph / concentration in plasma / concentration in spleen / concentration in thymus: n = 5; for Kp at 0.25 h / Kp at 0.5 h / Kp at 4 h: female, Sprague-Dawley, rat, oral, i.g. 10 mg/kg IMMH-010 maleate, read-out: T/P (tissue-to-plasma partition); for concentrations in tissues at 12 h: rat tissues, 12 h after oral 10 mg/kg IMMH-010 maleate; for tissues of main distribution: rats, oral 10 mg/kg IMMH-010 maleate
Protocol: Female Sprague-Dawley rats (200 ± 20 g, Vital River, Beijing, China) were kept in standard environmental conditions. Rats were fasted overnight with free access to water and randomly assigned to different groups before the experiments. All animal protocols were approved by the Institute Animal Care and Welfare Committee of the Institute of Materia Medica, Chinese Academy of Medical Sciences and Peking Union Medical College.
The tissue distribution study was performed 15 min, 30 min, 4 h and 12 h after i. g. administration of 10 mg/kg IMMH-010 maleate. Blood was collected and centrifuged at 5,000 rpm for 10 min. The heart, liver, brain, spleen, lung, kidney, adrenal gland, thymus, and lymph were harvested immediately. The tissues were washed with normal saline and blotted dry with filter paper. All samples were stored at -20°C before analysis.

[2] = system: various carcinoma xenograft models; conditions: cited from earlier work
[3] = adrenal gland, time 0.25 (15 min) after i.g. 10 mg/kg IMMH-010 maleate
[4] = adrenal gland, time 0.5 (30 min) after i.g. 10 mg/kg IMMH-010 maleate
[5] = adrenal gland, time 4 (4 h) after i.g. 10 mg/kg IMMH-010 maleate
[6] = brain, time 0.25 (15 min) after i.g. 10 mg/kg IMMH-010 maleate
[7] = brain, time 0.5 (30 min) after i.g. 10 mg/kg IMMH-010 maleate
[8] = brain, time 4 (4 h) after i.g. 10 mg/kg IMMH-010 maleate
[9] = heart, time 0.25 (15 min) after i.g. 10 mg/kg IMMH-010 maleate
[10] = heart, time 0.5 (30 min) after i.g. 10 mg/kg IMMH-010 maleate
[11] = heart, time 4 (4 h) after i.g. 10 mg/kg IMMH-010 maleate
[12] = kidney, time 0.25 (15 min) after i.g. 10 mg/kg IMMH-010 maleate
[13] = kidney, time 0.5 (30 min) after i.g. 10 mg/kg IMMH-010 maleate
[14] = kidney, time 4 (4 h) after i.g. 10 mg/kg IMMH-010 maleate
[15] = liver, time 0.25 (15 min) after i.g. 10 mg/kg IMMH-010 maleate
[16] = liver, time 0.5 (30 min) after i.g. 10 mg/kg IMMH-010 maleate
[17] = liver, time 4 (4 h) after i.g. 10 mg/kg IMMH-010 maleate
[18] = lung, time 0.25 (15 min) after i.g. 10 mg/kg IMMH-010 maleate
[19] = lung, time 0.5 (30 min) after i.g. 10 mg/kg IMMH-010 maleate
[20] = lung, time 4 (4 h) after i.g. 10 mg/kg IMMH-010 maleate
[21] = lymph, time 0.25 (15 min) after i.g. 10 mg/kg IMMH-010 maleate
[22] = lymph, time 0.5 (30 min) after i.g. 10 mg/kg IMMH-010 maleate
[23] = lymph, time 4 (4 h) after i.g. 10 mg/kg IMMH-010 maleate
[24] = time 0.25 (15 min) after i.g. 10 mg/kg IMMH-010 maleate
[25] = time 0.5 (30 min) after i.g. 10 mg/kg IMMH-010 maleate
[26] = time 4 (4 h) after i.g. 10 mg/kg IMMH-010 maleate
[27] = spleen, time 0.25 (15 min) after i.g. 10 mg/kg IMMH-010 maleate
[28] = spleen, time 0.5 (30 min) after i.g. 10 mg/kg IMMH-010 maleate
[29] = spleen, time 4 (4 h) after i.g. 10 mg/kg IMMH-010 maleate
[30] = thymus, time 0.25 (15 min) after i.g. 10 mg/kg IMMH-010 maleate
[31] = thymus, time 0.5 (30 min) after i.g. 10 mg/kg IMMH-010 maleate
[32] = thymus, time 4 (4 h) after i.g. 10 mg/kg IMMH-010 maleate

Structure (SMILES): CC(C)OC(=O)C(CO)NCc1cc(Cl)c(OCc2cccc(-c3ccccc3)c2Br)cc1OCc1cccnc1 (centres unmarked) [IMMH-010, 2-[4-(2-bromo-biphenyl-3-ylmethoxy)-5-chloro-2-(pyridin-3-ylmethoxy)-benzylamino]-3-hydroxy-propionic acid isopropyl ester]
- concentration in adrenal gland [1, 3]: 80.8 ± 47.4 ng/ml or ng/g
- concentration in adrenal gland [1, 4]: 204 ± 132 ng/ml or ng/g
- concentration in adrenal gland [1, 5]: 41.3 ± 6.9 ng/ml or ng/g
- concentration in brain [1, 6]: 6.22 ± 0.34 ng/ml or ng/g
- concentration in brain [1, 7]: 3.66 ± 3.35 ng/ml or ng/g
- concentration in brain [1, 8]: BLQ
- Kp at 0.25 h ([1]; adrenal gland): 25
- Kp at 0.5 h ([1]; adrenal gland): 51.1
- Kp at 0.25 h ([1]; brain): 1.9
- Kp at 0.5 h ([1]; brain): 0.9
- Kp at 0.25 h ([1]; heart): 5.4
- Kp at 0.5 h ([1]; heart): 9.5
- Kp at 0.25 h ([1]; liver): 3.8
- Kp at 0.5 h ([1]; liver): 6.4
- Kp at 0.5 h ([1]; lung): 0.3
- Kp at 0.25 h ([1]; lymph): 1.7
- Kp at 0.5 h ([1]; lymph): 21.2
- Kp at 0.25 h ([1]; spleen): 0.9
- Kp at 0.5 h ([1]; spleen): 2
- concentration in heart [1, 9]: 17.3 ± 10.5 ng/ml or ng/g
- concentration in heart [1, 10]: 38.1 ± 25.8 ng/ml or ng/g
- concentration in heart [1, 11]: 1.92 ± 2.66 ng/ml or ng/g
- concentration in kidney [1, 12]: BLQ
- concentration in kidney [1, 13]: BLQ
- concentration in kidney [1, 14]: BLQ
- concentration in liver [1, 15]: 12.4 ± 13.4 ng/ml or ng/g
- concentration in liver [1, 16]: 25.6 ± 19.8 ng/ml or ng/g
- concentration in liver [1, 17]: 6.30 ± 5.77 ng/ml or ng/g
- concentration in lung [1, 18]: BLQ
- concentration in lung [1, 19]: 1.37 ± 3.06 ng/ml or ng/g
- concentration in lung [1, 20]: BLQ
- concentration in lymph [1, 21]: 5.46 ± 5.1 ng/ml or ng/g
- concentration in lymph [1, 22]: 84.6 ± 87.9 ng/ml or ng/g
- concentration in lymph [1, 23]: 12.5 ± 7.1 ng/ml or ng/g
- concentration in plasma [1, 24]: 3.23 ± 2.28 ng/ml or ng/g
- concentration in plasma [1, 25]: 3.99 ± 3.45 ng/ml or ng/g
- concentration in plasma [1, 26]: BLQ
- concentrations in tissues at 12 h [1]: below the LLOQ
- tissues of main distribution [1]: adrenal gland, followed by the lymph, heart, liver and spleen
- concentration in spleen [1, 27]: 2.98 ± 2.77 ng/ml or ng/g
- concentration in spleen [1, 28]: 8.08 ± 8.51 ng/ml or ng/g
- concentration in spleen [1, 29]: 0.848 ± 1.896 ng/ml or ng/g
- concentration in thymus [1, 30]: BLQ
- concentration in thymus [1, 31]: BLQ
- concentration in thymus [1, 32]: BLQ
- antitumor activity [2]: significant antitumor activity

Structure (SMILES): O=C(O)[C@H](CO)NCc1cc(Cl)c(OCc2cccc(-c3ccccc3)c2Br)cc1OCc1cccnc1 [YPD-29B]
- concentration in adrenal gland [1, 3]: 15.3 ± 10.8 ng/ml or ng/g
- concentration in adrenal gland [1, 4]: 39.7 ± 45.3 ng/ml or ng/g
- concentration in adrenal gland [1, 5]: BLQ
- concentration in brain [1, 6]: BLQ
- concentration in brain [1, 7]: BLQ
- concentration in brain [1, 8]: BLQ
- Kp at 0.25 h ([1]; adrenal gland): 0.5
- Kp at 0.5 h ([1]; adrenal gland): 0.7
- Kp at 0.25 h ([1]; heart): 0.5
- Kp at 0.5 h ([1]; heart): 0.7
- Kp at 0.25 h ([1]; kidney): 2
- Kp at 0.5 h ([1]; kidney): 4.8
- Kp at 4 h ([1]; kidney): 34.6
- Kp at 0.25 h ([1]; liver): 43.8
- Kp at 0.5 h ([1]; liver): 58.2
- Kp at 4 h ([1]; liver): 40.1
- Kp at 0.25 h ([1]; lung): 1.1
- Kp at 0.5 h ([1]; lung): 2
- Kp at 4 h ([1]; lung): 4.4
- Kp at 0.25 h ([1]; lymph): 1.6
- Kp at 0.5 h ([1]; lymph): 6.8
- Kp at 4 h ([1]; lymph): 9.1
- Kp at 0.25 h ([1]; spleen): 0.5
- Kp at 0.5 h ([1]; spleen): 0.9
- Kp at 0.5 h ([1]; thymus): 0.05
- Kp at 4 h ([1]; thymus): 0.5
- concentration in heart [1, 9]: 17.3 ± 11.9 ng/ml or ng/g
- concentration in heart [1, 10]: 39.6 ± 33.7 ng/ml or ng/g
- concentration in heart [1, 11]: BLQ
- concentration in kidney [1, 12]: 64.2 ± 40.4 ng/ml or ng/g
- concentration in kidney [1, 13]: 265 ± 222 ng/ml or ng/g
- concentration in kidney [1, 14]: 168 ± 23 ng/ml or ng/g
- concentration in liver [1, 15]: 1,403 ± 962 ng/ml or ng/g
- concentration in liver [1, 16]: 3,239 ± 2,833 ng/ml or ng/g
- concentration in liver [1, 17]: 195 ± 56 ng/ml or ng/g
- concentration in lung [1, 18]: 35.7 ± 22.8 ng/ml or ng/g
- concentration in lung [1, 19]: 109 ± 104 ng/ml or ng/g
- concentration in lung [1, 20]: 21.4 ± 6.8 ng/ml or ng/g
- concentration in lymph [1, 21]: 51.5 ± 41.0 ng/ml or ng/g
- concentration in lymph [1, 22]: 378 ± 451 ng/ml or ng/g
- concentration in lymph [1, 23]: 44.0 ± 13.9 ng/ml or ng/g
- concentration in plasma [1, 24]: 32.0 ± 25.2 ng/ml or ng/g
- concentration in plasma [1, 25]: 55.7 ± 51.6 ng/ml or ng/g
- concentration in plasma [1, 26]: 4.86 ± 1.39 ng/ml or ng/g
- concentrations in tissues at 12 h [1]: below the LLOQ
- tissues of main distribution [1]: liver, followed by the lymph, kidney, and lung
- concentration in spleen [1, 27]: 15.1 ± 10.8 ng/ml or ng/g
- concentration in spleen [1, 28]: 48.4 ± 47.9 ng/ml or ng/g
- concentration in spleen [1, 29]: BLQ
- concentration in thymus [1, 30]: BLQ
- concentration in thymus [1, 31]: 2.74 ± 6.12 ng/ml or ng/g
- concentration in thymus [1, 32]: 2.23 ± 4.99 ng/ml or ng/g
